The source of these data is patent EP2149554A1, “Indolyamides as modulators for an EP2 receptor” (Bayer Schering Pharma Aktiengesellschaft, priority 2008, dated 2010).

SMILES strings stand for the structures.

For test [1], the target named is T1, EP2-Subtyp des humanen PGE2-Rezeptors (Homo sapiens, UniProt P43116).
T1 construct: host or cells: cells in a culture plate
Put plainly: cAMP antagonism test (HTRF cAMP detection, in presence of PGE2). Format: cell-based. The following applies: cAMP Antagonismustest; PGE2 as agonist; read-out: Antagonismus [IC50. An excerpt: 1. Nachweis des Antagonismus des humanen Prostaglandin E2 (Subtyp EP2) Rezeptorsignals
(§1) Die Bindung von PGE2 an den EP2-Subtyp des humanen PGE2-Rezeptors induziert die Aktivierung membranständiger Adenylatzyklasen und führt zur Bildung von cAMP. In Gegenwart des Phosphodiesteraseinhibitors IBMX wird das durch diese Stimulation akkumulierte und mittels Zell-Lyse freigesetzte cAMP in einem kompetitiven Nachweisverfahren eingesetzt. In diesem Test konkurriert das cAMP im Lysat mit cAMP-XL665 um die Bindung eines Eu-Kryptat markierten Anti-cAMP Antikörpers.
(§2) Dabei entsteht in Abwesenheit von zellulärem cAMP ein maximales Signal, welches auf der Kopplung dieses Antikörpers an das cAMP-XL665 Molekül beruht. Dadurch entsteht nach Anregung bei 337 nm ein auf FRET (fluorescence resonance energy transfer) basierendes, langanhaltendes Emissionssignal bei 665 nm (und bei 620 nm). Beide Signale werden in einem geeigneten Messgerät zeitlich versetzt, d.h. nach Abklingen der Hintergrundsfluoreszenz gemessen. Jegliche Erhöhung des durch Prostglandin-E2-Gabe bedingten niedrigen FRET-Signals (gemessen als Well-Ratio-Veränderung = Emission665nm/Emission620nm * 10000) zeigt die Wirkung von Antagonisten.
1.2.1. Test auf Antagonismus (Angaben pro Vertiefung einer 384-Loch-Platte):
Die in einer Testplatte und 30 % DMSO vorgelegten Substanzlösungen (0.75 µl) wurden in 16 µl einer KRSB+IBMX-Stimulationslösung gelöst (1 X Krebs-Ringer Bicarbonate Buffer; Sigma-Aldrich # K-4002; inklusive 750 µM 3-Isobutyl-1-methylxanthine Sigma-Aldrich # I-7018), anschließend wurden 15 µl davon in eine medienfreie Zellkulturplatte überführt, die kurz zuvor mit KRSB gewaschen worden war.
Nach einer 30-minütigen Vorinkubation bei Raumtemperatur (RT) wurden 5 µl einer 4xPGE2 Lösung (11 nM) zugegeben und in Gegenwart des Agonisten für weitere 60 min bei RT inkubiert (Volumen: ∼ 20 µl), bevor die Reaktion anschließend durch Zugabe von 5 µl Lysispuffer gestoppt und für weitere 20 min bei RT inkubiert wird (Volumen: ∼ 25 µl). Das Zell-Lysat wurde anschließend in eine Messplatte überführt und entsprechend den Herstellerangaben (cyclic AMP kit Cisbio International # 62AMPPEC) gemessen.
On the technique in general: Time-resolved FRET reads energy transfer from a long-lived donor to a nearby acceptor.

The test system of test [2] is Kumulus-Eizell Komplexe. Briefly: cumulus expansion test in vitro. Particulars: competing with PGE2. Format: cell-based, Mäusen (Stamm : CD1 (ICR)). The source says: Im prä-ovulatorischen antralen Follikel ist die Eizelle von Kumulus Zellen umgeben, die einen dichten Zellkranz um die Eizelle bilden. Nach dem LH-Peak (Lutenisierendes Hormon) wird eine Reihe von Prozessen aktiviert, die eine starke morphologische Veränderung dieses Zellkranzes aus Kumulus Zellen zur Folge hat. Hierbei bilden die Kumulus Zellen eine extrazelluläre Matrix, die zur sogenannten Kumulus Expansion führt (Vanderhyden et al. Dev Biol. 1990 Aug;140(2):307-317). Diese Kumulus Expansion ist ein wichtiger Bestandteil des ovulatorischen Prozesses und der nachfolgenden Möglichkeit zur Fertilisation. Bei der Kumulus Expansion sind Prostaglandine und hier das Prostaglandin E2, dessen Synthese durch den LH-Peak induziert wird, von entscheidender Bedeutung. Prostanoid EP2 Knock-out Mäuse (Hizaki et al. Proc Natl Acad Sci U S A. 1999 Aug 31 ;96(18):10501-6.) zeigen eine deutlich verminderte Kumulus Expansion und starke Subfertilität, was die Bedeutung des Prostanoid EP2-Rezeptors für diesen Prozess demonstriert.
2.2. Kumulus Expansions Test in vitro
In immaturen weiblichen Mäusen (Stamm : CD1 (ICR) von Charles River) wurde in einem Alter von 14 - 18 Tagen die Follikulogenese durch eine einmalige Gabe (intraperitoneal) von 10 I.E. PMSG (Pregnant Mare Serum Gonadotropine; Sigma G-4877, Lot 68H0909) induziert. […]

In test [3] the target is T1, EP2-Subtyp des humanen PGE2-Rezeptors. Put plainly: cellular agonism test (HTRF cAMP detection, without PGE2). The format is cell-based.
Source text: as §1, §2
1.2.2. Test auf Agonismus (Angaben pro Vertiefung einer 384-Loch-Platte): […]

T1 sequence (P43116 whole entry): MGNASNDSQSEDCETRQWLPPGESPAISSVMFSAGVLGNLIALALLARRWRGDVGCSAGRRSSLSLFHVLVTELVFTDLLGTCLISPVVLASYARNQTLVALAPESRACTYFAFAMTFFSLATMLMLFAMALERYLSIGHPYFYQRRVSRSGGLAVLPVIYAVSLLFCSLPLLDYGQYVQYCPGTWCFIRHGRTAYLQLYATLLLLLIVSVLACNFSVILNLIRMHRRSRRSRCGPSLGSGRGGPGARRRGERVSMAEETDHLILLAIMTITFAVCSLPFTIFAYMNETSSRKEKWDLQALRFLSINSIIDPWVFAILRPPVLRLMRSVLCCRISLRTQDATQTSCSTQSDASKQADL

Turning to `Cc1[nH]c2c(F)ccc(C)c2c1CCNC(=O)c1cc2ccc(C(=O)NCCC(N)=O)cc2[nH]1` [Beispiel 10, 1H-Indol-2,6-dicarbonsäure 6-[(2-carbamoyl-ethyl)-amid] 2-{[2-(7-fluor-2,4-dimethyl-1H-indol-3-yl)-ethyl]-amid}], in test [1], the IC50 worked out at 46 nM.

For `CC(C)Oc1ccc2c(=O)c3cc(C(=O)O)ccc3oc2c1` [AH 6809, reference compound], in test [2] (100 - 200 µM), the “Unterdrückung der Kumulus Expansion” value is recorded as “ca. 30%”.

`Cc1[nH]c2c(F)ccc(C)c2c1CCNC(=O)c1cc2ccc(C(=O)NCC(C)(C)CO)cc2[nH]1` [Beispiel 8, 1H-Indol-2,6-dicarbonsäure 2-{[2-(7-fluor-2,4-dimethyl-1H-indol-3-yl)-ethyl]-amid} 6-[(3-hydroxy-2,2-dimethyl-propyl)-amid]]: the IC50 in test [1] came out at 122 nM.

Turning to `Cc1[nH]c2c(F)ccc(C)c2c1CCNC(=O)c1cc2ccc(C(=O)NCC(N)=O)cc2[nH]1` [Beispiel 6, 1H-Indol-2,6-dicarbonsäure 6-carbamoylmethyl-amid 2-{[2-(7-fluor-2,4-dimethyl-1H-indol-3-yl)-ethyl]-amid}], in test [2] (5 µM), the “Unterdrückung der Kumulus Expansion” value is “ca. 67%”. Moreover, the “Wirkung im zellulären Agonismustest” value in test [3] is on record as “keine Inhibition”. The IC50 in test [1] amounted to 22 nM.

For `Cc1[nH]c2c(F)ccc(C)c2c1CCNC(=O)c1cc2cc(C(=O)NCCC(N)=O)ccc2[nH]1` [Beispiel 5, 1H-Indol-2,5-dicarbonsäure 5-[(2-carbamoyl-ethyl)-amid] 2-{[2-(7-fluor-2,4-dimethyl-1H-indol-3-yl)-ethyl]-amid}], in test [1], the IC50 stood at 297 nM.

For orientation: IC50 means the concentration that inhibits the measured activity by half.
